test system: Mycobacterium tuberculosis variant bovis; assay: Antimycobacterial activity against Mycobacterium bovis ATCC 35734 assessed as inhibition of bacterial growth at 128 uM measured after 7 days by luminescence based analysis relative to control; assay type: functional; settings: ATCC 35734, 168 h, time 7 day

Which inhibition at 128 µM does the source give for `COC(=O)[C@@H](NC(=O)c1ccc(/C=C2\SC(=O)N(CC(=O)NOCc3ccccc3)C2=O)cc1)C(C)C` here?
Its inhibition at 128 µM is 11.2%.

How did the inhibition at 128 µM turn out when `CC(C)[C@H](NC(=O)[C@H](C)NC(=O)c1ccn(CC(=O)NOCc2ccccc2)c1)C(=O)O` was run?
Its inhibition at 128 µM is 10.2%.

`CC(C)C[C@H](NC(=O)CNC(=O)c1ccn(CC(=O)NOCc2ccccc2)c1)C(=O)O` was tested. Which inhibition at 128 µM did it give?
The inhibition at 128 µM was 9.7%.

With `COC(=O)[C@H](CC(C)C)NC(=O)c1cccc(/C=C2\SC(=O)N(CC(=O)NOCc3ccccc3)C2=O)c1` as the compound, how does the inhibition at 128 µM read?
The inhibition at 128 µM was 17.2%.

With `CC(C)[C@H](NC(=O)CNC(=O)c1ccn(CC(=O)NOCc2ccccc2)c1)C(=O)O` as the compound, how does the inhibition at 128 µM read?
The inhibition at 128 µM was 8.2%.

`C=CCONC(=O)Cn1cc(C(=O)N[C@@H](C)C(=O)N[C@H](C(=O)O)C(C)C)c2ccccc21` was tested. Which inhibition at 128 µM did it give?
The inhibition at 128 µM was 18.5%.

For `COC(=O)[C@@H](NC(=O)c1cccc(/C=C2\SC(=O)N(CC(=O)NOCc3ccccc3)C2=O)c1)C(C)C`, which inhibition at 128 µM is on record?
Its inhibition at 128 µM is 7.2%.

Which inhibition at 128 µM does the source give for `COC(=O)[C@H](CC(C)C)NC(=O)c1ccc(/C=C2\SC(=O)N(CC(=O)NOCc3ccccc3)C2=O)cc1` here?
The inhibition at 128 µM was 14.6%.

With `CC(C)[C@H](NC(=O)CNC(=O)c1cn(CC(=O)NOCc2ccccc2)c2ccccc12)C(=O)O` as the compound, how does the inhibition at 128 µM read?
The inhibition at 128 µM was 10.3%.

How did the inhibition at 128 µM turn out when `CC(C)C[C@H](NC(=O)CNC(=O)c1cn(CC(=O)NOCc2ccccc2)c2ccccc12)C(=O)O` was run?
The inhibition at 128 µM was 33.7%.

With `C=CCONC(=O)CN1C(=O)S/C(=C\c2ccc(C(=O)N[C@H](C(=O)OC)C(C)C)cc2)C1=O` as the compound, how does the inhibition at 128 µM read?
The inhibition at 128 µM was 10.5%.

How did the inhibition at 128 µM turn out when `C=CCONC(=O)Cn1cc(C(=O)N[C@@H](C)C(=O)N[C@@H](CC(C)C)C(=O)O)c2ccccc21` was run?
Its inhibition at 128 µM is 7.7%.

For `C=CCONC(=O)Cn1cc(C(=O)NCC(=O)N[C@@H](CC(C)C)C(=O)O)c2ccccc21`, which inhibition at 128 µM is on record?
The inhibition at 128 µM was 18.3%.

For `CC(C)C[C@H](NC(=O)[C@H](C)NC(=O)c1cn(CC(=O)NOCc2ccccc2)c2ccccc12)C(=O)O`, which inhibition at 128 µM is on record?
The inhibition at 128 µM was 7.2%.

Which inhibition at 128 µM does the source give for `CC(C)C[C@H](NC(=O)[C@H](C)NC(=O)c1ccn(CC(=O)NOCc2ccccc2)c1)C(=O)O` here?
The inhibition at 128 µM was 25.2%.

For `C=CCONC(=O)CN1C(=O)S/C(=C\c2ccc(C(=O)N[C@@H](CC(C)C)C(=O)OC)cc2)C1=O`, which inhibition at 128 µM is on record?
Its inhibition at 128 µM is 11.3%.

`C=CCONC(=O)Cn1ccc(C(=O)N[C@@H](C)C(=O)N[C@H](C(=O)O)C(C)C)c1` was tested. Which inhibition at 128 µM did it give?
Its inhibition at 128 µM is 9.3%.

With `C=CCONC(=O)CN1C(=O)S/C(=C\c2cccc(C(=O)N[C@@H](CC(C)C)C(=O)OC)c2)C1=O` as the compound, how does the inhibition at 128 µM read?
Its inhibition at 128 µM is 9.7%.

For `C=CCONC(=O)Cn1ccc(C(=O)NCC(=O)N[C@@H](CC(C)C)C(=O)O)c1`, which inhibition at 128 µM is on record?
Its inhibition at 128 µM is 5.2%.

`C=CCONC(=O)CN1C(=O)S/C(=C\c2cccc(C(=O)N[C@H](C(=O)OC)C(C)C)c2)C1=O` was tested. Which inhibition at 128 µM did it give?
Its inhibition at 128 µM is 9.8%.

`C=CCONC(=O)Cn1cc(C(=O)NCC(=O)N[C@H](C(=O)O)C(C)C)c2ccccc21` was tested. Which inhibition at 128 µM did it give?
Its inhibition at 128 µM is 15.8%.

With `C=CCONC(=O)Cn1ccc(C(=O)N[C@@H](C)C(=O)N[C@@H](CC(C)C)C(=O)O)c1` as the compound, how does the inhibition at 128 µM read?
The inhibition at 128 µM was 7.3%.

For `CC(C)[C@H](NC(=O)[C@H](C)NC(=O)c1cn(CC(=O)NOCc2ccccc2)c2ccccc12)C(=O)O`, which inhibition at 128 µM is on record?
The inhibition at 128 µM was 34.2%.

How did the inhibition at 128 µM turn out when `COc1nc2ccc(Br)cc2cc1[C@@H](c1ccccc1)[C@@](O)(CCN(C)C)c1cccc2ccccc12` [BEDAQUILINE] was run?
Its inhibition at 128 µM is 100%.

For `NNC(=O)c1ccncc1` [ISONIAZID], which inhibition at 128 µM is on record?
The inhibition at 128 µM was 100%.

Which inhibition at 128 µM does the source give for `CO[C@H]1/C=C/O[C@@]2(C)Oc3c(C)c(O)c4c(O)c(c(/C=N/N5CCN(C)CC5)c(O)c4c3C2=O)NC(=O)/C(C)=C\C=C\[C@H](C)[C@H](O)[C@@H](C)[C@@H](O)[C@@H](C)[C@H](OC(C)=O)[C@@H]1C` [RIFAMPIN] here?
The inhibition at 128 µM was 100%.

Source: ChEMBL document CHEMBL5247593, “Novel heterocyclic hydroxamates as inhibitors of the mycobacterial zinc metalloprotease Zmp1 to probe its mechanism of function” (Eur J Med Chem, 2022)
